± gives the expanded uncertainty stated by the source.
Conditions: Liquid

| vapor or sublimation pressure (337.42 K) [kPa] | Structure (SMILES) | vapor or sublimation pressure (329 K) [kPa] |
| --- | --- | --- |
|  | CC(C)=O [acetone] | 100 ± 1.3 |
| 100 ± 1.3 | CO [methanol] |  |

— the NIST ThermoML archive (doi:10.1021/je200305n)
